The target of the assay is T1, human FAAH (Homo sapiens, UniProt O00519).
T1 construct: expressed in transfected cells; host or cells: H4 cells stably transfected with human FAAH (Geneticin selection); crude membrane homogenates
T1 sequence (O00519 1-579): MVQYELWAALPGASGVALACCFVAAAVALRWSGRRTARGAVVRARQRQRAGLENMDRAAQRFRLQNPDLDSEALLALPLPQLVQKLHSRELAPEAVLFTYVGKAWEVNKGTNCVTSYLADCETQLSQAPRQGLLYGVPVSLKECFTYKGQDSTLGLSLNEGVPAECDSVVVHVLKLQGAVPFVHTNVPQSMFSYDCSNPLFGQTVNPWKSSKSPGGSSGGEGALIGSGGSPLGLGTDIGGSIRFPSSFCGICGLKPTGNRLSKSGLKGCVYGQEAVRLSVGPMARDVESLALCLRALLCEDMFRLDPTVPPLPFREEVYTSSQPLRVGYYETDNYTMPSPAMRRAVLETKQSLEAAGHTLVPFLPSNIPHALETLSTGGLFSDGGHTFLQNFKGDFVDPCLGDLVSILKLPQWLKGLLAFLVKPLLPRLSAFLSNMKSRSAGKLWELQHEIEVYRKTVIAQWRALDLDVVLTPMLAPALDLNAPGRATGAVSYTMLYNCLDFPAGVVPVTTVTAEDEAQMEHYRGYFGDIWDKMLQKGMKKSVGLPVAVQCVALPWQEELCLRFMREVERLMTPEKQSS
As to the kind of experiment: Determination of FAAH activity (membrane homogenates of H4-FAAH cells, [3H]-anandamide hydrolysis). Particulars: transfected human FAAH, H4-FAAH cell membranes, 10 μM anandamide, room temperature, one hour. The assay is classed as biochemical. As for the experimental part:
Homogenates of crude membranes were prepared from H4 cells that express transfected human FAAH (H4-FAAH cells). Briefly, cells were grown in DMEM supplemented with 10% FBS and Geneticin at a final concentration of 500 μg/ml (Gibco BRL, Rockville, Md.). Confluent cultures of H4-FAAH cells were rinsed twice with phosphate-buffered saline [138 mM NaCl, 4.1 mM KCl, 5.1 mM Na2PO4, 1.5 mM KH2PO4 (pH 7.5), 37° C.] and incubated for 5-10 min. at 4° C. in lysis buffer [1 mM sodium bicarbonate]. Cells were transferred from plates to polypropylene tubes (16×100 mm), homogenized and centrifuged at 32,000×g for 30 min. Pellets were resuspended by homogenization in lysis buffer and centrifuged at 32,000×g for 30 min. Pellets were resuspended in lysis buffer (15-20 μg protein/ml) then stored at −80° C. until needed. On the day of an experiment, membranes were diluted to 2.67 μg protein/ml in 125 mM Tris-Cl, pH 9.0
Activity of FAAH was measured using a modification of the method described by Omeir et al., 1995 (Life Sci 56:1999, 1995). Membrane homogenates (240 ng protein) were incubated at room temperature for one hour with 1.67 nM anandamide [ethanolamine 1-^3H] (American Radiolabeled Chemical Inc., St Louis, Mo.) and 10 μM anandamide (Sigma/RBI, St. Louis, Mo.) in the absence and presence of inhibitors. The reaction was stopped by the addition of 1 volume of a solution of methanol and dichloroethane (1:1). The mixture was shaken and then centrifuged at 1000×g for 15 min. to separate the aqueous and organic phases. An aliquot of the aqueous phase, containing [^3H]-ethanolamine was withdrawn and counted by scintillation spectroscopy. Data were expressed as the percentage of [^3H]-ethanolamine formed versus vehicle, after subtraction of the background radioactivity determined in the presence of 10 μM arachidonyl trifluoromethyl ketone (ATFMK), an inhibitor of FAAH. IC50 values were determined using a four-parameter logistic equation for dose-response curves.

SMILES strings stand for the structures.

A word on the IC50: it is the concentration that inhibits the measured activity by half. In the case of `Cc1nc(-c2ccccc2)c(-c2ccccc2)n1CCCCCNC(=O)Oc1ccc(F)cc1` [Example 32, [5-(2-Methyl-4,5-diphenyl-imidazol-1-yl)-pentyl]-carbamic acid 4-fluoro-phenyl ester], the IC50 lay in the range of 10 to 100 nM. `COC(=O)NCCCCCCn1c(C)nc(-c2ccccc2)c1-c1ccccc1` [Example 8, [6-(2-Methyl-4,5-diphenyl-imidazol-1-yl)-hexyl]-carbamic acid methyl ester] displayed an IC50 of 100 to 1000 nM. In turn, `Cc1nc(-c2ccccc2)c(-c2ccccc2)n1CCCCCCCNC(=O)Oc1ccc(F)cc1` [Example 21, [7-(2-Methyl-4,5-diphenyl-imidazol-1-yl)-heptyl]-carbamic acid 4-fluoro-phenyl ester] registered an IC50 of 10 to 100 nM. With `Cc1nc(-c2ccccc2)c(-c2ccccc2)n1CCCCCCNC(=O)Oc1ccc(C#N)cc1` [Example 15, [6-(2-Methyl-4,5-diphenyl-imidazol-1-yl)-hexyl]-carbamic acid 4-cyano-phenyl ester] the figure was 10 to 100 nM; with `COc1cccc(OC)c1OC(=O)NCCCCCCn1c(C)nc(-c2ccccc2)c1-c1ccccc1` [Example 16, [6-(2-Methyl-4,5-diphenyl-imidazol-1-yl)-hexyl]-carbamic acid 2,6-dimethoxy-phenyl ester], 100 to 1000 nM; with `Cc1nc(-c2ccccc2)c(-c2ccccc2)n1CCCCCNC(=O)Oc1ccccc1F` [Example 34, [5-(2-Methyl-4,5-diphenyl-imidazol-1-yl)-pentyl]-carbamic acid 2-fluoro-phenyl ester], 10 to 100 nM. For `COc1ccc(OC(=O)NCCCCCn2c(C)nc(-c3ccccc3)c2-c2ccccc2)cc1` [Example 36, [5-(2-Methyl-4,5-diphenyl-imidazol-1-yl)-pentyl]-carbamic acid 4-methoxy-phenyl ester] the value was 10 to 100 nM. With `Cc1nc(-c2ccccc2)c(-c2ccccc2)n1CCCCCNC(=O)Oc1ccccc1` [Example 31, [5-(2-Methyl-4,5-diphenyl-imidazol-1-yl)-pentyl]-carbamic acid phenyl ester] the figure was 10 to 100 nM. Consider `Cc1nc(-c2ccccc2)c(-c2ccccc2)n1CCCCCC(NC(=O)Oc1ccccc1F)C(C)C` (stereo not drawn) [Example 73, [1-Isopropyl-6-(2-methyl-4,5-diphenyl-imidazol-1-yl)-hexyl]-carbamic acid 2-fluoro-phenyl ester], for which the IC50 is 100 to 1000 nM. `Cc1nc(-c2ccccc2)c(-c2ccccc2)n1CCCCCCNC(=O)Oc1ccc(F)c(F)c1` [Example 41, [6-(2-Methyl-4,5-diphenyl-imidazol-1-yl)-hexyl]-carbamic acid 3,4-difluoro-phenyl ester]: the IC50 is < 10 nM.

In the case of `Cc1nc(-c2ccccc2)c(-c2ccccc2)n1CCCCCCNC(=O)O/N=C/c1cccnc1` [Example 51, 3-Pyridinecarboxaldehyde, O-[6-(2-methyl-4,5-diphenyl-1H-imidazol-1-yl)hexylaminocarbonyl]oxime], the IC50 fell in the range of 10 to 100 nM. For `Cc1nc(-c2ccc(F)cc2)c(-c2ccc(F)cc2)n1CCCCCCNC(=O)Oc1ccccc1F` [Example 43, {6-[4,5-Bis-(4-fluoro-phenyl)-2-methyl-imidazol-1-yl]-hexyl}-carbamic acid 2-fluoro-phenyl ester] the value was < 10 nM; for `Cc1nc(-c2ccccc2)c(-c2ccccc2)n1CCCCCCNC(=O)Oc1ccc(F)cc1F` [Example 11, [6-(2-Methyl-4,5-diphenyl-imidazol-1-yl)-hexyl]-carbamic acid 2,4-difluoro-phenyl ester], < 10 nM; for `Cc1nc(-c2ccccc2)c(-c2ccccc2)n1CCCCCCCNC(=O)Oc1ccccc1` [Example 20, [7-(2-Methyl-4,5-diphenyl-imidazol-1-yl)-heptyl]-carbamic acid phenyl ester], < 10 nM. The compound `Cc1nc(-c2ccccc2)c(-c2ccccc2)n1CCOc1ccc(NC(=O)Oc2ccccc2)cc1` [Example 60, {4-[2-(2-Methyl-4,5-diphenyl-imidazol-1-yl)-ethoxy]-phenyl}-carbamic acid phenyl ester] came in with an IC50 of 1000 to 10000 nM.

(Values after patent USRE39634E1, “Bisarylimidazoly fatty acid amide hydrolase inhibitors” (Bristol-Myers Squibb Company, priority 2001, dated 2007).)
